Source: PubChem BioAssay (NCI)
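Interpolation was linear, between the two tested concentrations surrounding the appropriate level; five concentrations were tested over 48 hours in 96-well plates. TGI is the concentration that stops growth completely.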

What was measured:
Test in all cases: NCI anticancer screen, dose series, 48 h
786-0 renal = test system: 786-0 renal
ACHN renal = test system: ACHN renal
BT-549 breast = test system: BT-549 breast
HT29 colon = test system: HT29 colon
KM12 colon = test system: KM12 colon
LOX IMVI melanoma = test system: LOX IMVI melanoma
M14 melanoma = test system: M14 melanoma
MCF7 breast = test system: MCF7 breast
MDA-N = test system: MDA-N
NCI-H23 lung = test system: NCI-H23 lung
NCI/ADR-RES ovarian = test system: NCI/ADR-RES ovarian
OVCAR-8 ovarian = test system: OVCAR-8 ovarian
RPMI-8226 leukemia = test system: RPMI-8226 leukemia
SK-MEL-2 melanoma = test system: SK-MEL-2 melanoma
SK-MEL-5 melanoma = test system: SK-MEL-5 melanoma
SK-OV-3 ovarian = test system: SK-OV-3 ovarian
SN12C renal = test system: SN12C renal
TK-10 renal = test system: TK-10 renal
HL-60(TB) leukemia = test system: HL-60(TB) leukemia

O=[N+]([O-])c1ccc(N=Nc2c(O)ccc3ccccc23)c([N+](=O)[O-])c1
TGI (786-0 renal): > 100 µM
TGI (ACHN renal): > 100 µM
TGI (BT-549 breast): > 100 µM
TGI (HT29 colon): > 100 µM
TGI (KM12 colon): > 100 µM
TGI (LOX IMVI melanoma): > 100 µM
TGI (M14 melanoma): > 100 µM
TGI (MCF7 breast): > 100 µM
TGI (MDA-N): > 100 µM
TGI (NCI-H23 lung): > 100 µM
TGI (NCI/ADR-RES ovarian): > 100 µM
TGI (OVCAR-8 ovarian): > 100 µM
TGI (RPMI-8226 leukemia): > 100 µM
TGI (SK-MEL-2 melanoma): > 100 µM
TGI (SK-MEL-5 melanoma): > 100 µM
TGI (SK-OV-3 ovarian): > 100 µM
TGI (SN12C renal): > 100 µM
TGI (TK-10 renal): > 100 µM

COc1ccc2nccc(SCC(=O)O)c2c1
TGI (786-0 renal): > 100 µM
TGI (ACHN renal): > 100 µM
TGI (BT-549 breast): > 100 µM
TGI (HL-60(TB) leukemia): > 100 µM
TGI (HT29 colon): > 100 µM
TGI (KM12 colon): > 100 µM
TGI (LOX IMVI melanoma): > 100 µM
TGI (M14 melanoma): > 100 µM
TGI (MDA-N): > 100 µM
TGI (NCI-H23 lung): > 100 µM
TGI (NCI/ADR-RES ovarian): > 100 µM
TGI (OVCAR-8 ovarian): > 100 µM
TGI (RPMI-8226 leukemia): > 100 µM
TGI (SK-MEL-2 melanoma): > 100 µM
TGI (SK-MEL-5 melanoma): > 100 µM
TGI (SN12C renal): > 100 µM
TGI (TK-10 renal): > 100 µM

CC1=NN(c2cccc(Cl)c2)C2(SCC(=O)N2c2nc3ccccc3s2)/C1=C\c1ccc(N(C)C)cc1 (stereo unspecified)
TGI (786-0 renal): > 100 µM
TGI (ACHN renal): 84.1 µM
TGI (HL-60(TB) leukemia): > 100 µM
TGI (HT29 colon): > 100 µM
TGI (KM12 colon): > 100 µM
TGI (LOX IMVI melanoma): > 100 µM
TGI (M14 melanoma): > 100 µM
TGI (MCF7 breast): > 100 µM
TGI (MDA-N): > 100 µM
TGI (NCI-H23 lung): > 100 µM
TGI (NCI/ADR-RES ovarian): > 100 µM
TGI (OVCAR-8 ovarian): > 100 µM
TGI (RPMI-8226 leukemia): > 100 µM
TGI (SK-MEL-2 melanoma): 57.5 µM
TGI (SK-MEL-5 melanoma): > 100 µM
TGI (SK-OV-3 ovarian): 39.6 µM
TGI (TK-10 renal): > 100 µM

COc1cccc2c1CCc1cc3c(N)nc(N)nc3nc1-2
TGI (786-0 renal): 6.13 µM
TGI (ACHN renal): 36.5 µM
TGI (BT-549 breast): 52.1 µM
TGI (HT29 colon): 17.3 µM
TGI (KM12 colon): 37.5 µM
TGI (LOX IMVI melanoma): 3.34 µM
TGI (M14 melanoma): 20.9 µM
TGI (MCF7 breast): 47.9 µM
TGI (MDA-N): 18.1 µM
TGI (NCI-H23 lung): 18.2 µM
TGI (NCI/ADR-RES ovarian): 46.7 µM
TGI (OVCAR-8 ovarian): 21.7 µM
TGI (RPMI-8226 leukemia): > 100 µM
TGI (SK-MEL-2 melanoma): 33.9 µM
TGI (SK-MEL-5 melanoma): 10.2 µM
TGI (SK-OV-3 ovarian): 40.3 µM
TGI (SN12C renal): 28.1 µM
TGI (TK-10 renal): 47.3 µM

O=C1CCCCCCCCCCC1CCCCCBr (stereo unspecified)
TGI (786-0 renal): 86 µM
TGI (ACHN renal): 84 µM
TGI (HT29 colon): 95.6 µM
TGI (KM12 colon): 53.7 µM
TGI (LOX IMVI melanoma): 37.8 µM
TGI (M14 melanoma): 83.6 µM
TGI (MCF7 breast): 63.3 µM
TGI (MDA-N): > 100 µM
TGI (NCI-H23 lung): 74.8 µM
TGI (NCI/ADR-RES ovarian): 64.3 µM
TGI (OVCAR-8 ovarian): > 100 µM
TGI (SK-MEL-2 melanoma): 32.4 µM
TGI (SK-MEL-5 melanoma): 31.2 µM
TGI (SK-OV-3 ovarian): > 100 µM
TGI (SN12C renal): 43.1 µM
TGI (TK-10 renal): > 100 µM

CCOC(=O)CCC(NC(=O)c1ccc(Oc2nc3ccccc3nc2-c2ccccc2)cc1)C(=O)OCC (stereo unspecified)
TGI (786-0 renal): > 28.7 µM
TGI (ACHN renal): > 66.9 µM
TGI (HL-60(TB) leukemia): > 100 µM
TGI (HT29 colon): 10.7 µM
TGI (KM12 colon): > 100 µM
TGI (LOX IMVI melanoma): > 100 µM
TGI (M14 melanoma): > 100 µM
TGI (MCF7 breast): > 100 µM
TGI (MDA-N): > 85.4 µM
TGI (NCI-H23 lung): > 61.3 µM
TGI (NCI/ADR-RES ovarian): 27.7 µM
TGI (OVCAR-8 ovarian): 16 µM
TGI (RPMI-8226 leukemia): > 100 µM
TGI (SK-MEL-2 melanoma): > 93 µM
TGI (SK-MEL-5 melanoma): > 100 µM
TGI (SK-OV-3 ovarian): > 67.6 µM
TGI (SN12C renal): > 100 µM
TGI (TK-10 renal): > 56.8 µM

COc1ccc(/C=C2\CN(C)C/C(=C\c3ccc(OC)cc3)C2=O)cc1
TGI (786-0 renal): > 100 µM
TGI (ACHN renal): > 100 µM
TGI (HL-60(TB) leukemia): > 100 µM
TGI (HT29 colon): > 100 µM
TGI (KM12 colon): > 100 µM
TGI (LOX IMVI melanoma): > 100 µM
TGI (M14 melanoma): > 100 µM
TGI (MDA-N): > 100 µM
TGI (NCI-H23 lung): > 100 µM
TGI (NCI/ADR-RES ovarian): > 100 µM
TGI (RPMI-8226 leukemia): > 100 µM
TGI (SK-MEL-2 melanoma): > 100 µM
TGI (SK-MEL-5 melanoma): > 100 µM
TGI (SN12C renal): > 100 µM
TGI (TK-10 renal): > 100 µM

COc1cccc(C2c3cc4c(cc3OC(N3CCOCC3)C2C)OCO4)c1OC (stereo unspecified)
TGI (786-0 renal): 52.7 µM
TGI (ACHN renal): 70.9 µM
TGI (HT29 colon): 15.8 µM
TGI (KM12 colon): 36.2 µM
TGI (LOX IMVI melanoma): 12.6 µM
TGI (M14 melanoma): 29 µM
TGI (MCF7 breast): > 100 µM
TGI (MDA-N): 46.9 µM
TGI (NCI-H23 lung): > 100 µM
TGI (NCI/ADR-RES ovarian): 29.7 µM
TGI (OVCAR-8 ovarian): > 100 µM
TGI (RPMI-8226 leukemia): 24.1 µM
TGI (SK-MEL-2 melanoma): 25.5 µM
TGI (SK-MEL-5 melanoma): 24.5 µM
TGI (SN12C renal): 48.4 µM
TGI (TK-10 renal): > 100 µM

CN(C)CC1CN=C(N)O1 (stereo unspecified)
TGI (786-0 renal): > 100 µM
TGI (ACHN renal): > 100 µM
TGI (KM12 colon): > 100 µM
TGI (LOX IMVI melanoma): > 100 µM
TGI (M14 melanoma): > 100 µM
TGI (MCF7 breast): > 100 µM
TGI (MDA-N): > 100 µM
TGI (NCI-H23 lung): > 100 µM
TGI (NCI/ADR-RES ovarian): > 100 µM
TGI (RPMI-8226 leukemia): > 100 µM
TGI (SK-MEL-2 melanoma): > 100 µM
TGI (SK-MEL-5 melanoma): > 100 µM
TGI (SK-OV-3 ovarian): > 100 µM
TGI (SN12C renal): > 100 µM
TGI (TK-10 renal): > 100 µM

CCCSc1ccc2[nH]c(/N=C/c3ccccc3)cc2c1
TGI (786-0 renal): 40.1 µM
TGI (ACHN renal): > 100 µM
TGI (BT-549 breast): 97.2 µM
TGI (HT29 colon): > 100 µM
TGI (LOX IMVI melanoma): 32.5 µM
TGI (M14 melanoma): > 100 µM
TGI (MDA-N): 62.6 µM
TGI (NCI-H23 lung): > 100 µM
TGI (NCI/ADR-RES ovarian): 47.9 µM
TGI (OVCAR-8 ovarian): 56.2 µM
TGI (RPMI-8226 leukemia): 48.3 µM
TGI (SK-MEL-2 melanoma): 32.2 µM
TGI (SK-MEL-5 melanoma): 20.4 µM
TGI (SN12C renal): 45.7 µM

Cn1c(=O)n2n(c1=O)C(S(=O)(=O)c1ccccc1)C2 (stereo unspecified)
TGI (786-0 renal): > 100 µM
TGI (ACHN renal): > 100 µM
TGI (BT-549 breast): > 100 µM
TGI (HT29 colon): > 100 µM
TGI (KM12 colon): > 100 µM
TGI (LOX IMVI melanoma): > 100 µM
TGI (M14 melanoma): > 100 µM
TGI (MCF7 breast): > 100 µM
TGI (MDA-N): > 100 µM
TGI (NCI-H23 lung): > 100 µM
TGI (NCI/ADR-RES ovarian): > 100 µM
TGI (OVCAR-8 ovarian): > 100 µM
TGI (RPMI-8226 leukemia): > 100 µM
TGI (SK-MEL-2 melanoma): > 100 µM
TGI (SK-MEL-5 melanoma): > 100 µM
TGI (SK-OV-3 ovarian): > 100 µM
TGI (SN12C renal): > 100 µM
TGI (TK-10 renal): > 100 µM

O=S(=O)(c1ccccc1)C(c1ccc2ccccc2n1)S(=O)(=O)c1ccccc1
TGI (786-0 renal): > 100 µM
TGI (ACHN renal): > 100 µM
TGI (BT-549 breast): > 100 µM
TGI (HL-60(TB) leukemia): > 100 µM
TGI (HT29 colon): > 100 µM
TGI (KM12 colon): > 100 µM
TGI (LOX IMVI melanoma): > 100 µM
TGI (MCF7 breast): > 100 µM
TGI (MDA-N): > 100 µM
TGI (NCI-H23 lung): > 100 µM
TGI (NCI/ADR-RES ovarian): > 100 µM
TGI (OVCAR-8 ovarian): > 100 µM
TGI (RPMI-8226 leukemia): > 100 µM
TGI (SK-MEL-5 melanoma): > 100 µM
TGI (SN12C renal): > 100 µM
TGI (TK-10 renal): > 100 µM

O=c1[nH]/c(=C/c2ccc(OCc3ccccc3)cn2)c(=O)[nH]/c1=C/c1ccc(F)cc1
TGI (786-0 renal): 30 µM
TGI (ACHN renal): > 76.2 µM
TGI (BT-549 breast): > 58.5 µM
TGI (HT29 colon): > 32.4 µM
TGI (KM12 colon): > 40.9 µM
TGI (LOX IMVI melanoma): > 100 µM
TGI (M14 melanoma): > 32.1 µM
TGI (MCF7 breast): > 100 µM
TGI (MDA-N): 0.259 µM
TGI (NCI-H23 lung): > 50.4 µM
TGI (NCI/ADR-RES ovarian): > 37 µM
TGI (OVCAR-8 ovarian): > 47 µM
TGI (RPMI-8226 leukemia): 10.8 µM
TGI (SK-MEL-2 melanoma): > 52.2 µM
TGI (SK-MEL-5 melanoma): > 100 µM
TGI (SK-OV-3 ovarian): > 37.8 µM
TGI (SN12C renal): > 50.3 µM
TGI (TK-10 renal): > 39.7 µM

CC(=O)O/C=C1/C[C@H]2[C@@H]3CCC4CC(C(C)=O)CC[C@]4(C)[C@H]3CC[C@]2(C)C1=O (stereo partly specified)
TGI (786-0 renal): > 100 µM
TGI (ACHN renal): > 100 µM
TGI (BT-549 breast): > 100 µM
TGI (HL-60(TB) leukemia): 37.2 µM
TGI (HT29 colon): > 100 µM
TGI (KM12 colon): 93.3 µM
TGI (LOX IMVI melanoma): > 100 µM
TGI (MCF7 breast): > 100 µM
TGI (MDA-N): > 100 µM
TGI (NCI-H23 lung): > 100 µM
TGI (SK-MEL-2 melanoma): > 100 µM
TGI (SK-MEL-5 melanoma): > 100 µM
TGI (SK-OV-3 ovarian): > 100 µM
TGI (SN12C renal): > 100 µM
TGI (TK-10 renal): > 100 µM
